Test results from article PMC3602154 (PLoS ONE, 2013).

Key:
Alpha1B = biological target: T1, Alpha1B (Homo sapiens, UniProt P35368); test: PDSP radioligand binding, adrenoceptor α1B
T1 sequence (P35368 1-520): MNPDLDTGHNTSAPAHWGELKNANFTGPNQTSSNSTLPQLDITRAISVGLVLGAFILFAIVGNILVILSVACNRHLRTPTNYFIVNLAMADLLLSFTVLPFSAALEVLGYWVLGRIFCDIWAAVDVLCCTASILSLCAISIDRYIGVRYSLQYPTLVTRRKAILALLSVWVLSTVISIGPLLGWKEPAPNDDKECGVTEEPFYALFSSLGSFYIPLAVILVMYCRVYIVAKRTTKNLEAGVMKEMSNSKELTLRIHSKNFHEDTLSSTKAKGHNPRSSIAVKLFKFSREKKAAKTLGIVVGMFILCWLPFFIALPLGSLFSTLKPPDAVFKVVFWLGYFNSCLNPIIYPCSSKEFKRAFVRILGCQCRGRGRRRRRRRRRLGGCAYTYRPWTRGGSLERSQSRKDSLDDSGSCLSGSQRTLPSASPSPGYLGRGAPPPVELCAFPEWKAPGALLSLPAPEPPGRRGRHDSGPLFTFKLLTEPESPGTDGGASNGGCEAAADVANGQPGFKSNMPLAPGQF
Description: (§1) [17] and http://pdsp.med.unc.edu/UNC-CH%20Protocol%20Book.pdf.

Sigma2 = Sigma2 (Homo sapiens, UniProt Q5BJF2); test: PDSP radioligand binding, Sigma2; conditions: for inhibition at 10 µM: quadruplicate, read-out: Sigma2 Primary Screen inhibition of binding
Sequence of Sigma2 (Q5BJF2 whole entry): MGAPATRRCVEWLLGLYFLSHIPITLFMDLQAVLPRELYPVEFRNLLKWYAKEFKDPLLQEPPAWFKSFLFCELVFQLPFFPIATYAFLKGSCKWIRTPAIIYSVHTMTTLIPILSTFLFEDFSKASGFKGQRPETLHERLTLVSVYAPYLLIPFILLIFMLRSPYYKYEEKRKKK
Description: as §1

H4 = H4 (Homo sapiens, UniProt Q9H3N8); test: PDSP radioligand binding, histamine receptor H4
Sequence of H4 (Q9H3N8 whole entry): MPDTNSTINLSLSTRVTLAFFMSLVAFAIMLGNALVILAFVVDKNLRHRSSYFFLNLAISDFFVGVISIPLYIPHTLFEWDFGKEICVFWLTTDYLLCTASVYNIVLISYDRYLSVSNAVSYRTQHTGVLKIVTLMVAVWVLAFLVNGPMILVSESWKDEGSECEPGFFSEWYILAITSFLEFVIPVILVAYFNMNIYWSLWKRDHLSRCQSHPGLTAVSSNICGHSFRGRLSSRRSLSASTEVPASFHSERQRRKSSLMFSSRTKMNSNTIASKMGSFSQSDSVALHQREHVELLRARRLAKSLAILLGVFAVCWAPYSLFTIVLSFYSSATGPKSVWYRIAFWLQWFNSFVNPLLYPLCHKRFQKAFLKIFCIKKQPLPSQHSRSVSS
Description: as §1

CB1 = CB1 (Homo sapiens, UniProt P21554); test: PDSP radioligand binding, cannabinoid CB-1
Sequence of CB1 (P21554 whole entry, species assumed): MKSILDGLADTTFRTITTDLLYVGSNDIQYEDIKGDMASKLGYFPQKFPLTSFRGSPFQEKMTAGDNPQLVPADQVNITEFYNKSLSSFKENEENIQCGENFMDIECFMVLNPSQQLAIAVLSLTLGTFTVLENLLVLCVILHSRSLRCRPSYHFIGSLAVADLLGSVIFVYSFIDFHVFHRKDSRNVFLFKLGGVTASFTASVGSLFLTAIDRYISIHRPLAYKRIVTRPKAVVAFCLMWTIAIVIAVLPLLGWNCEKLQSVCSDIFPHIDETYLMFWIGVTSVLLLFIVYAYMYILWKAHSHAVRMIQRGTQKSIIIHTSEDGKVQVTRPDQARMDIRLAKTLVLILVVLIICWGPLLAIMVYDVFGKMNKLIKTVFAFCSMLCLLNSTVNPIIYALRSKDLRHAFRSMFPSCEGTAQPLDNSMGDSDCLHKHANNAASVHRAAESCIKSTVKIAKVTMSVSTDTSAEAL
Description: as §1

A3B2 = A3B2 (Rattus norvegicus, UniProt P04757+P12390); test: PDSP radioligand binding, nicotinic receptor α3 ß2
Sequence of A3B2 (P04757 26-499): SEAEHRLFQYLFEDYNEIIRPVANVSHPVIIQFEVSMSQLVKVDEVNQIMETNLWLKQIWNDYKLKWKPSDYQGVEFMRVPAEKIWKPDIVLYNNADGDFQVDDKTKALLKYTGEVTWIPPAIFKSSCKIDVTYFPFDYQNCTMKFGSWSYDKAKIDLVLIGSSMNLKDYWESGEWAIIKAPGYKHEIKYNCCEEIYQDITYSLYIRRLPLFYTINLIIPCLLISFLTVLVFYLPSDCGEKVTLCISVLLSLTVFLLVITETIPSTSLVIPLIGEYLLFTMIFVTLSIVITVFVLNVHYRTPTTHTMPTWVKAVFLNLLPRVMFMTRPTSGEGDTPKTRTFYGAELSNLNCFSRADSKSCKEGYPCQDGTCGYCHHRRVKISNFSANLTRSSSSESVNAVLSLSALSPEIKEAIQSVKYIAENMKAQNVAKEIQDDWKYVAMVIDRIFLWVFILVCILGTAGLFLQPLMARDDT
Sequence of A3B2 (P12390 25-500): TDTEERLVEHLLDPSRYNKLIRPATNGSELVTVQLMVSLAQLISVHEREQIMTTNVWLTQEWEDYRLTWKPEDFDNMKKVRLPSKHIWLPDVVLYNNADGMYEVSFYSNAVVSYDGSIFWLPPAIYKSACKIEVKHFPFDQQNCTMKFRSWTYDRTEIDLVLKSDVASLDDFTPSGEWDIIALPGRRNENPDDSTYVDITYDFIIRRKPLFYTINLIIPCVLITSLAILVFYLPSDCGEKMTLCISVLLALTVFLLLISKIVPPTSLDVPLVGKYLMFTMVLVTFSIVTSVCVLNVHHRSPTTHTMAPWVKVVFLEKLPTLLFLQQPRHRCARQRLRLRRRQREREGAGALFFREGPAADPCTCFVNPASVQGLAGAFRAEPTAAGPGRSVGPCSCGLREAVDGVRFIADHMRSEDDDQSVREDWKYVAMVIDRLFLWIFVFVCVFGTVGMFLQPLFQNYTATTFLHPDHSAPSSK
Description: as §1

[1] = biological target: SERT (serotonin transporter) (Homo sapiens, UniProt P31645); test: biochemical; assay type: binding; conditions: for Ki: Table 2
Sequence of SERT (serotonin transporter) (P31645 whole entry, species assumed): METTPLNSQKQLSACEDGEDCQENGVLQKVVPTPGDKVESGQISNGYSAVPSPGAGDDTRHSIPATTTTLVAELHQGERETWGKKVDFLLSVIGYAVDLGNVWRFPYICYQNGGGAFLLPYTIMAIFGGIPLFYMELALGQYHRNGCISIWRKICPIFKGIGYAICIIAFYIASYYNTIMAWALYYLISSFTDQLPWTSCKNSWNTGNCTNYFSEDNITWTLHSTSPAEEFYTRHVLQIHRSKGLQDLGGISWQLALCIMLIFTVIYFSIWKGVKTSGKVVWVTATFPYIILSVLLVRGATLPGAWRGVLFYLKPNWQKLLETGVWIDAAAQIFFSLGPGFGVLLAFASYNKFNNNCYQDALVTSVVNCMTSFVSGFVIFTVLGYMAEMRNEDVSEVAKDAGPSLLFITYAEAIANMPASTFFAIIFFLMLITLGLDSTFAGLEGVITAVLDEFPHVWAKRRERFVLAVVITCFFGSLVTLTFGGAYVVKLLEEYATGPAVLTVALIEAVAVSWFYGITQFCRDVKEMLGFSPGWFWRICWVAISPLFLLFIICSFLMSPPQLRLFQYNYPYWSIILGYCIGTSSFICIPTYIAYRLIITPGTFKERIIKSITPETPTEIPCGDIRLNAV
Description: as §1

| Structure (SMILES) | Ki (Alpha1B) [µM] | inhibition at 10 µM (Sigma2) [%] | Ki (Sigma2; Ki Sigma 2, Table S1, unit inferred) [µM] | Ki (H4) [µM] | Ki (CB1) [µM] | Ki (A3B2) [µM] | Ki [1] [µM] | affinity for the serotonin transporter (SERT), in words [1] |
| --- | --- | --- | --- | --- | --- | --- | --- | --- |
| CCNC1(c2cccc(OC)c2)CCCCC1=O (racemic) [Methoxetamine, (RS)-2-(ethylamino)-2-(3-methoxyphenyl)cyclohexanone] | > 10 | < 50 | > 10 | > 10 | > 10 | > 10 | – | – |
| COc1cccc(C2(N3CCCCC3)CCCCC2)c1 [3-MeO-PCP, 1-[1-(3-methoxyphenyl)cyclohexyl]piperidine] | > 10 | < 50 | – | > 10 | > 10 | > 10 | 0.216 | – |
| COc1ccc(C2(N3CCCCC3)CCCCC2)cc1 [4-MeO-PCP, 1-[1-(4-methoxyphenyl)cyclohexyl]piperidine] | > 10 | – | – | > 10 | > 10 | > 10 | 0.844 | submicromolar affinities |
